Data set [1] deals with A-549 (lung cancer cell line). Briefly: Antiproliferative assay, A-549. In kind it is cell-based, human. The settings on record: Homo sapiens, A549; read-out: Antiproliferative activity IC50 ± SEM, A-549. An excerpt:
(§1) Refer to Supplementary Appendix A for more information.
(§2) DMSO (0.1%) was used as control.

For data set [2], the system named is MCF-7 (breast cancer cell line). Description: Antiproliferative assay, MCF-7. The settings on record: Homo sapiens, MCF7; read-out: Antiproliferative activity IC50 ± SEM, MCF-7. In kind it is cell-based, human.
Text: as §1, §2

The test system of data set [3] is Panc-1 (pancreatic cancer cell line). Briefly: Antiproliferative assay, Panc-1. The class given is cell-based, human. The settings on record: Homo sapiens, PANC-1; read-out: Antiproliferative activity IC50 ± SEM, Panc-1.
Text: as §1, §2

Data set [4] deals with HT-29 (colon cancer cell line). Briefly: Antiproliferative assay, HT-29. To be noted: Homo sapiens, read-out: Antiproliferative activity IC50 ± SEM, HT-29. The class given is cell-based, human.
Text: as §1, §2

Data set [5] deals with caspase-3. Description: Caspase-3 activation assay in MCF-7 cells. In kind it is cell-based, human. The settings on record: for Caspase-3 Conc: compound at its IC50 concentration; for Caspase-3 Fold change: vs untreated control. From the text: (§3) Cells experience apoptosis in reaction to specific signaling cues, resulting in significant modifications. […] They decompose vital cellular components, including nuclear proteins, such as DNA repair enzymes and structural proteins within the cytoskeleton, essential for optimal cellular function.
(§4) Supplementary Appendix A provides more details.
Allow all reagents to reach room temperature before use. Gently mix all liquid reagents prior to use. Determine the number of 8-well strips needed for the assay. Insert these in the frame(s) for current use. Add 100 μl of the Standard Diluent Buffer to the zero standard wells. Well(s) reserved for chromogen blank should be left empty. Add 100 μl of standards and controls or diluted samples to the appropriate microtiter wells. The sample dilution chosen should be optimized for each experimental system. Tap gently on the side of plate to mix. Cover wells with plate cover and incubate for 2 hours at room temperature. Thoroughly aspirate or decant solution from wells and discard the liquid, Wash wells 4 times. […] Tap gently on the side of the plate to mix. Cover plate with plate cover and incubate for 1 hour at room temperature. Thoroughly aspirate or decant solution from wells and discard the liquid, Wash wells 4 times. Add 100 μl Anti-Rabbit IgG HRP Working Solution to each well except the chromogen blank(s). Prepare the working dilution as described in Preparing IgG HRP. Cover wells with the plate cover and incubate for 30 minutes at room temperature. Thoroughly aspirate or decant solution from wells and discard the liquid. Wash wells 4 times. Add 100 μl of Stabilized Chromogen to each well. The liquid in the wells will begin to turn blue. Incubate for 30 minutes at room temperature and in the dark. The incubation time for chromogen substrate is often determined by the microtiter plate reader used. […] The O.D. values should be monitored, and the substrate reaction stopped before the O.D. of the positive wells exceeds the limits of the instrument. The O.D. values at 450 nm can only be read after the Stop Solution has been added to each well. […] Add 100 μl of Stop Solution to each well. Tap side of plate gently to mix. The solution in the wells should change from blue to yellow. Read the absorbance of each well at 450 nm having blanked the plate reader against a chromogen blank composed of 100 μl each of Stabilized Chromogen and Stop Solution. Read the plate within 2 hours after adding the Stop Solution. Use a curve fitting software to generate the standard curve. […] Read the concentrations for unknown samples and controls from the standard curve. Multiply value(s) obtained for sample(s) by the appropriate dilution factor to correct for the dilution in step 3.

Data set [6] has as its system caspase-8. Description: Caspase-8 activation assay in MCF-7 cells. In kind it is cell-based, human. To be noted: for Caspase-8 Conc: compound at its IC50 concentration; for Caspase-8 Fold change: vs untreated control. The method, then: as §3, §4
The absorbance of each microwell was read on a spectrophotometer at 450 nm. A standard curve is prepared from 7human Caspase-8 standard dilutions and human Caspase-8 concentration determined.

The target in data set [7] is EGFR (Homo sapiens, UniProt P00533). Description: EGFR-TK inhibitory assay.
EGFR, sequence (P00533 669-1210): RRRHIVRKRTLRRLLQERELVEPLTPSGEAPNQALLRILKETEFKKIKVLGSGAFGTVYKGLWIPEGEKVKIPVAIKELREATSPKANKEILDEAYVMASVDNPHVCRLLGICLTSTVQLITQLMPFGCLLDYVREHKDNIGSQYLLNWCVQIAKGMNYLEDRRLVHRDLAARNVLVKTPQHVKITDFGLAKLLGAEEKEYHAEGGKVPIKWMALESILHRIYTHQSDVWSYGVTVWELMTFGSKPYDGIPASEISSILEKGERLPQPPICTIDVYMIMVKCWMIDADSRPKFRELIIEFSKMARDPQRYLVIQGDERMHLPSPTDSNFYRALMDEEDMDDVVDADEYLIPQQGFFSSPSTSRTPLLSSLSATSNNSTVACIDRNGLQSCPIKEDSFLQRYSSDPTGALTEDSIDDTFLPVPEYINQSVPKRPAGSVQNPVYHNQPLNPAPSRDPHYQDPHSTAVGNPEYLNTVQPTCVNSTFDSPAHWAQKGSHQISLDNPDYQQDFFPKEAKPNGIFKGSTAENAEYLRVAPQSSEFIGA
Protocol: To record autophosphorylation level, EGFR kinase assay was carried out on the basis of DELFIA/Time-Resolved Fluorometry. […] Each compound (10 µL) was incubated with recombinant enzyme (10 µL, 5 ng for EGFR, 1:80 dilution in 100 mM HEPES) for 10 min at 25 °C, subsequent to the addition of 5X buffer (10 µL, containing 2 mM MnCl2, 100 µM Na3VO4, 20 mM HEPES and 1 mM DTT) and ATP-MgCl2 (20 µL, containing 0.1 mM ATP and 50 mM MgCl2) and incubation for 1h. The negative and positive controls were included in each plate by the incubation of enzyme either with or without ATP-MgCl2. The liquid was removed after incubation and the plates were washed thrice using wash buffer. Europium-tagged antiphosphotyrosine antibody (75 µL, 400 ng) was added to each well followed by incubation of 1h and then washing of the plates using buffer. […] The autophosphorylation percentage inhibition by compounds was calculated using the following equation:
A short description of data set [8]: Cell viability assay (MTT) on MCF-10A normal cells. To be noted: human, MCF-10A normal mammary gland epithelial cells.
Protocol: (§5) The medium in which cells were propagated contained Dulbecco's modified Eagle's medium (DMEM)/ Ham's F-12 medium (1:1) supplemented with epidermal growth factor (20 ng/mL), hydrocortisone (500 ng/mL), insulin (10 μg/mL), 2 mM glutamine and 10% foetal calf serum. After every 2-3 days, the cells were passed using trypsin ethylenediamine tetra acetic acid (EDTA). The cells were seeded at a density of 10^4 cells mL^-1 in flat-bottomed culture plates containing 96 wells each. After 24 h, medium was removed from the plates and the compounds in (in 0.1% DMSO) were added (in 200 μL medium to yield a final concentration of 0.1% v/v) to the wells of plates. A single compound was designated with four wells followed by incubation of plates for 96h at 37°C. After incubation, medium was removed completely from the plates followed by addition of MTT (0.4 mg/mL in medium) to each well and subsequent incubation of plates for 3h. MTT (along with the medium) was removed and DMSO (150μL) was added to each well of the culture plates, followed by vortexing and subsequent measurement of absorbance (at 540 nm) using microplate reader.
The test system of data set [9] is MCF-10A normal human mammary gland epithelial cell line. Briefly: Cell viability assay (MTT) on MCF-10A normal cells. To be noted: dose of 50 μM.
Protocol: as §5
The subject of data set [10] is four human cancer cell lines (HT-29, A-549, MCF-7, Panc-1). Briefly: Antiproliferative assay, mean over four cancer cell lines (GI50). To be noted: Homo sapiens, read-out: Average IC50 (GI50).
Protocol: To calculate the total nuclear DNA, a fluorescent dye (propidium iodide, PI) is used which can attach to the DNA, thus offering a quick and precise technique. PI cannot pass through the cell membrane and its signal intensity can be considered as directly proportional to quantity of cellular DNA. Cells whose cell membranes are damaged or have changed permeability are counted as dead ones. […] The medium was removed; the compounds were added to the plates at 10 µM concentrations (in 0.1% DMSO) in triplicates, followed by incubation for 48 h. DMSO (0.1%) was used as control. After incubation, medium was removed followed by the addition of PI (25 µl, 50µg/mL in water/medium) to each well of the plates. At -80 °C, the plates were allowed to freeze for 24 h, followed by thawing at 25 °C. A fluorometer (Polar-Star BMG Tech) was used to record the readings at excitation and emission wavelengths of 530 and 620 nm for each well. The percentage cytotoxicity of compounds was calculated using the following formula:

One may read the IC50 as the concentration at which inhibition is half-maximal. As a reminder, the viability is a read-out of living cells in per cent, often relative to untreated cells. On to `NS(=O)(=O)c1ccc(-n2cc(CSc3nc4ccccc4[nH]3)nn2)cc1` [6i, 4-(4-(((1H-benzimidazol-2-yl)thio)methyl)-1H-1,2,3-triazol-1-yl)benzene-sulfonamide], for which the IC50 stood at 30 ± 2 nM in data set [1]; 28 ± 2 nM in [2]; 28 ± 2 nM in data set [3]; 30 ± 2 nM in data set [4]; 78 ± 5 nM in data set [7]; 29 nM in data set [10]. In addition, the “Caspase-3 Conc” value in data set [5] was determined as 590 ± 5 pg/mL. Moreover, in data set [5], the “Caspase-3 Fold change” value is 9. Moreover, the “Caspase-8 Conc” value in data set [6] is given as 1.60 ± 0.20 ng/mL. Also, in data set [6], the “Caspase-8 Fold change” value is given as 18. Also, in data set [8], the viability at 4 days, 50 µM is 90%. In addition, in [9], the “Impact on non-tumor cells MCF-10A” value is given as “no impact”.

With `O=[N+]([O-])c1cccc(-n2cc(Cn3c(SCc4ccccc4)nc4ccccc43)nn2)c1` [10e], the IC50 in data set [1] worked out at 26 ± 2 nM; in data set [2] it was 24 ± 2 nM; in data set [3], 26 ± 2 nM; in data set [4], 25 ± 2 nM; in [7], 73 ± 4 nM; in [10], 25 nM. For the same compound, the “Caspase-3 Conc” value in data set [5] was 778 ± 6 pg/mL. For the same compound, the “Caspase-3 Fold change” value in [5] was found to be 12. The “Caspase-8 Conc” value in data set [6] came out at 1.75 ± 0.15 ng/mL. For the same compound, the “Caspase-8 Fold change” value in data set [6] was 19. The compound further had a viability at 4 days, 50 µM in data set [8] of 90%. The “Impact on non-tumor cells MCF-10A” value in [9] is given as “no impact”.
